Values after ≈ are worked out from the molar mass of the structure shown. Values joined by “and” are separate entries in the source; they are usually repeats but may differ in a detail not shown here. Equal values may be shown once. Read-outs that look alike come from different tables or passages of the source.
Legend:
[1] = test system: HEK293 cells; test: in vitro; assay type: cell-based; conditions: human, 1.25 µM
Protocol: (§1) On Day 3, fluorescence was read with Nano-BRET substrates. Remove plates from incubator to allow to reach to RT (30 min). Also equilibrate CTG reagent to Rm Temp. Dilute Nano-BRET substrate 1:100 in Assay media. Add 25 uL of diluted substrate to each well and shake for 30 seconds. Read on ClarioSTAR or GloMAX right away (within 10 min). Donor emission @ 460 nm. Acceptor emission @ 618 nm. Use the same plate to measure cell viability (Cell Titer-Glo-2.0 (CTG) Viability test). After reading BRET signal, add CTG reagent to each well at 1:2 ratio and shake on orbital shaker for 2 min. Incubate at Rm Temp for 10-30 min. Read luminescence on ClarioSTAR or GloMAX. Analysis was performed using Prism. Non-linear regression. Log (inhibitor) vs response—variable slope (four parameters). For CTG data linear values (not logarithmic).

[2] = in vitro; assay type: cell-based; conditions: human, HEK293 cells, CTG (CellTiter Glo) Relative to Media
Protocol: as §1

[3] = CHI Log D procedure; assay type: physicochemical; conditions: for chromatographic logD: pH 7.4, CHI Log D
[4] = target: T1, beta-catenin/TCF4 engagement (Homo sapiens, UniProt P35222); test: Nano-BRET target engagement assay (B-cat-Halo & TCF4-Luc in HEK293 cells); assay type: cell-based; conditions: for BRET % Inhibition: replicates
T1 construct: expressed in transfected cells; host or cells: HEK293
T1 sequence (P35222 1-781): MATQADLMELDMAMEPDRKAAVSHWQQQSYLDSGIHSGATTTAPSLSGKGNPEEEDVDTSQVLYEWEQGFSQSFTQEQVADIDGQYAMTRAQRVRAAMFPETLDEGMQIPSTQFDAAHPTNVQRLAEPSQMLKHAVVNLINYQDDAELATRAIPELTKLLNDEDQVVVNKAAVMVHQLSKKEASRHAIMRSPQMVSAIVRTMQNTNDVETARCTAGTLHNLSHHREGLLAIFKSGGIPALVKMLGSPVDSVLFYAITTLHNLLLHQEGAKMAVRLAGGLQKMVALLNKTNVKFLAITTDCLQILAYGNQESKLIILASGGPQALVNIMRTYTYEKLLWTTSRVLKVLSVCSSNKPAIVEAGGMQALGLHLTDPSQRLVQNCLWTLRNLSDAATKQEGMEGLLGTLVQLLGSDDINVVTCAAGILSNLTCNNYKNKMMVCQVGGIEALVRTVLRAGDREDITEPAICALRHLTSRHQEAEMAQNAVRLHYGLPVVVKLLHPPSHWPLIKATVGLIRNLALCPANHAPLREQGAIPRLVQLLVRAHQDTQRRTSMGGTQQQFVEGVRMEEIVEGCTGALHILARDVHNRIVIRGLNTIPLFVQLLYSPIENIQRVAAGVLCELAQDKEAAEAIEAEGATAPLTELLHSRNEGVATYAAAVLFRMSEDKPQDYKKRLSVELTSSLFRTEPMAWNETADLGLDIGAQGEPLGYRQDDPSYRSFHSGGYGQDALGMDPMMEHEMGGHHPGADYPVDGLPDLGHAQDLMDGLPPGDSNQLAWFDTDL

[5] = Solubility in PBS; assay type: physicochemical
Method in brief: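 PBS sample ultracentrifuged; supernatant run on HPLC vs. 50 μM peptide in DMSO standard. Solubility = (PBS peak area / DMSO peak area) × 50 uM.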

[6] = test system: TCF/LEF luciferase Reporter in DLD1 cells; test: TCF reporter assay (DLD1 TCF/LEF luciferase reporter, Bright-Glo); assay type: cell-based
Method in brief: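 Readouts: Bright-Glo luciferase for reporter signal and CellTiter-Glo for cell viability, with absolute IC50 derived. The reporter clone came from lentiviral TCF/LEF-luciferase transduction of DLD1 cells, seeded 5000 cells/well in RPMI with 4% FBS and exposed overnight to serially diluted compounds.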

[7] = target: T2, full-length beta-Catenin (Uniprot ID P35222) (Homo sapiens, UniProt P35222); test: Fluorescence polarization IC50 (beta-catenin / 5FAM-TCF4 10-53 competition); assay type: binding
T2 construct: 10 nM full-length beta-Catenin (Uniprot ID P35222)
T2 sequence (P35222 1-781): T1 sequence (P35222 1-781)

[8] = test system: COLO320DM cells; assay type: cell-based; conditions: read-out: COLO320DM Proliferation Abs IC50
Method in brief: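 COLO320DM cells at 250 cells/well in RPMI-1640 + 4% HI FBS, dosed after 18–22 h with a 7-point […] 1/2 dilution series from 20 uM down to 313 nM.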

[9] = test system: PLOD2 and LCOR; test: Expression of beta-catenin-independent genes (FIG. 2); assay type: cell-based
[10] = test system: Axin2 and Myc; test: Gene expression in cells (FIG. 1); assay type: cell-based
Excerpt: FIG. 1. Provided agents can modulate gene expression in cells.

[11] = test system: DLD1; test: Reporter assay (e.g., DLD1 reporter assay) (FIG. 3); assay type: cell-based; conditions: compared to a control peptide I-796
Excerpt: FIG. 3. Provided technologies can effectively modulate expression.
Various technologies can be utilized for characterizing and/or assessing provided technologies (e.g., agents (e.g., various peptides), compositions, methods, etc.) in accordance with the present disclosure. As described herein, in some embodiments, a useful technology is or comprises fluorescence polarization. In some embodiments, a useful technology assesses Log P or Log D. In some embodiments, a useful technology is or comprises a CHI Log D assay. In some embodiments, a useful technology assesses solubility. In some embodiments, a useful technology is or comprises NanoBRET. In some embodiments, a useful technology is or comprises a reporter assay (e.g., DLD1 reporter assay). In some embodiments, a useful technology is or comprises alphascreen. Certain useful protocols are described in the Examples. Those skilled in the art appreciate that suitable adjustments may be made to such protocols, e.g., according to specific conditions, agents, purposes, etc.

[12] = plate row B = 20 uM, integration 0.3 s, reading 1
[13] = read-out: DLD1 4% Abs IC50, DLD1 4%
[14] = fluorescence polarization, beta-catenin, read-out: FP EC50
[15] = Peptide + ST-Protein (SAINT-Protein lipid), read-out: Nano-BRET Abs IC50
[16] = Peptide only, read-out: Nano-BRET Abs IC50
[17] = absolute IC50, read-out: NanoBRET Abs IC50
[18] = Peptide + ST-Protein (SAINT-Protein lipid), read-out: TCF Reporter Assay Abs IC50
[19] = Peptide only, read-out: TCF Reporter Assay Abs IC50

CC(=O)N1CCC[C@]12CC=CCCCC1(CCCC=CCCCOC(=O)N3CC[C@@](C(=O)N[C@@H](Cc4ccsc4)C(=O)N[C@@H](Cc4csc5ccccc45)C(=O)N[C@@H](CCC(N)=O)C(N)=O)(C3)NC(=O)[C@H](CC(N)=O)NC(=O)[C@H](CC(=O)O)NC(=O)[C@H](C)NC(=O)[C@H](C)NC(=O)[C@H](CC(=O)O)NC(=O)[C@H](CC(=O)O)NC1=O)NC(=O)[C@H](CC(C)(C)C)NC(=O)[C@H](Cc1ccccc1)NC2=O (stereo partly drawn) [I-797, Ac-PL3-Phe-Npg-B5-Asp-Asp-Ala-Ala-Asp-Asn-PyrS2-3Thi-BztA-Gln-NH2]
CTG (CellTiter Glo) Relative to Media [1]: 101
viability at 0.625 µM [2]: 104%
viability at 1.25 µM [2]: 104%
viability at 2.5 µM [2]: 103%
viability at 5 µM [2]: 102%
viability at 10 µM [2]: 100%
viability at 20 µM [2]: 92%
chromatographic logD [3]: 2.32
BRET % Inhibition ([4]; 0.625 uM): −56.5% and −6.9% and 8.3%
BRET % Inhibition ([4]; 1.25 uM): −24.8% and −1.1% and −4.0%
BRET % Inhibition ([4]; 2.5 uM): −21.3% and 26.5% and −11.7%
BRET % Inhibition ([4]; 5 uM): −16.9% and −28.4% and −18.6%
BRET % Inhibition ([4]; 10 uM): −21.7% and −21.9% and 1.7%
BRET % Inhibition ([4]; 20 uM): −36.7% and −0.3% and −19.5%
inhibition at 10 µM ([4]; HEK293, @ 10 uM, read-out: NanoBRET % inh @ 10 uM): 4.3%
BRET Acceptor 600 LP raw reading [4, 12]: 860 and 660 and 640
BRET Donor 450 BP raw reading [4, 12]: 58480 and 55870 and 47990
BRET Acceptor 600 LP raw reading ([4]; plate row D = 5 uM): 510 and 420 and 630
BRET Donor 450 BP raw reading ([4]; plate row D = 5 uM): 38850 and 29900 and 47500
BRET Donor 450 BP raw reading ([4]; plate row E = 2.5 uM): 34130 and 22720 and 40100
BRET Acceptor 600 LP raw reading ([4]; plate row G = 0.625 uM): 410 and 440 and 530
BRET Donor 450 BP raw reading ([4]; plate row G = 0.625 uM): 25180 and 35670 and 47630
IC50 ([4]; read-out: NanoBRET IC50): > 20 µM
solubility at 15 min ([5]; Solubility (uM)): 45 µM (≈ 86.3 µg/mL)

CC(=O)N1CCC[C@]12CC=CCCCC1(CCCC=CCCCOC(=O)N3CC[C@@](C(=O)N[C@@H](Cc4ccsc4)C(=O)N[C@@H](Cc4csc5ccccc45)C(=O)N[C@@H](CCC(N)=O)C(N)=O)(C3)NC(=O)[C@H](CC(C)C)NC(=O)[C@H](Cc3ccccc3)NC(=O)[C@H](C)NC(=O)[C@H](C)NC(=O)[C@H](CC(=O)O)NC(=O)[C@H](CC(=O)O)NC1=O)NC(=O)[C@H](CC(C)(C)C)NC(=O)[C@H](CC(=O)O)NC2=O (stereo partly drawn) [I-801, Ac-PL3-Asp-Npg-B5-Asp-Asp-Ala-Ala-Phe-Leu-PyrS2-3Thi-BztA-Gln-NH2]
chromatographic logD [3]: 2.21
IC50 ([4]; read-out: NanoBRET Abs IC50): 5.8 µM
IC50 ([4]; read-out: NanoBRET IC50): 6.8 µM
IC50 [6, 13]: 4.3 µM
Solubility [5]: 50 µM (≈ 95.9 µg/mL)
IC50 [7, 14]: 0.006 µM
IC50 ([7]; read-out: beta-Catenin FP IC50): 0.007 µM
IC50 [8]: > 20 µM

CC(=O)N1CCC[C@]12CC=CCCCC1(CCCC=CCCCOC(=O)N3CC[C@@](C(=O)N[C@@H](Cc4ccsc4)C(=O)N[C@@H](Cc4csc5ccccc45)C(=O)N[C@@H](CCC(N)=O)C(N)=O)(C3)NC(=O)[C@H](CC(C)C)NC(=O)[C@H](Cc3ccccc3)NC(=O)[C@H](C)NC(=O)[C@H](C)NC(=O)[C@H](CN(CC(=O)O)CC(F)(F)F)NC(=O)[C@H](CC(=O)O)NC1=O)NC(=O)[C@H](CC(C)(C)C)NC(=O)[C@H](CC(=O)O)NC2=O (stereo partly drawn) [I-849, Ac-PL3-Asp-Npg-B5-Asp-TfeGA-Ala-Ala-Phe-Leu-PyrS2-3Thi-BztA-Gln-NH2]
CHI Log D ([3]; pH 7.4): 2.393
expression of beta-catenin-independent genes including beta-catenin-independent WNT target genes such as PLOD2 and LCOR [9]: do not significantly impact expression
expression of various nucleic acids such as Axin2 and Myc [10]: can effectively reduce expression
IC50 [4, 15]: 0.7 µM
IC50 [4, 16]: 5 µM
IC50 [4, 17]: 2.6 µM
IC50 ([4]; read-out: NanoBRET Abs IC50): 3.6 µM
IC50 ([4]; read-out: NanoBRET IC50): 2.3 µM
IC50 [6, 18]: 0.2 µM
IC50 [6, 19]: 5 µM
IC50 [6, 13]: 1.1 µM
IC50 [7, 14]: 0.007 µM
IC50 ([7]; read-out: beta-Catenin FP IC50): 0.008 µM
expression in a report assay [11]: can effectively reduce expression

CC(=O)N1CCC[C@]12CC=CCCCC1(CCCC=CCCCOC(=O)N3CC[C@@](C(=O)N[C@@H](Cc4ccccc4Cl)C(=O)N[C@@H](Cc4csc5ccccc45)C(=O)N[C@@H](CCO)C(N)=O)(C3)NC(=O)[C@H](CCO)NC(=O)[C@H](Cc3ccccc3)NC(=O)[C@H](C)NC(=O)[C@H](C)NC(=O)[C@H](CN(CC(=O)O)CC(F)(F)F)NC(=O)[C@H](CC(=O)O)NC1=O)NC(=O)[C@H](CC(C)(C)C)NC(=O)[C@H](CC(=O)O)NC2=O (stereo partly drawn) [I-993, Ac-PL3-Asp-Npg-B5-Asp-TfeGA-Ala-Ala-Phe-Hse-PyrS2-2C1F-BztA-Hse-NH2]
chromatographic logD [3]: 2.33
IC50 [4, 15]: 0.9 µM
IC50 [4, 16]: 7 µM
IC50 [4, 17]: 4 µM
IC50 ([4]; read-out: NanoBRET Abs IC50): 4.9 µM
IC50 [6, 18]: 0.2 µM
IC50 [6, 19]: 5 µM
IC50 ([6]; absolute IC50, read-out: DLD1 reporter assay Abs IC50): 4.4 µM
IC50 [6, 13]: 1.8 µM
Solubility ([5]; Solubility (uM)): 41 µM (≈ 82.7 µg/mL)
IC50 [7, 14]: 0.012 µM
IC50 ([7]; read-out: beta-Catenin FP IC50): 0.018 µM
IC50 [8]: 3.6 µM
